Data on 20 compounds can be found in patent US11884627B2, “Compounds and compositions for treating conditions associated with LPA receptor activity” (Lhotse Bio, Inc., priority 2022, dated 2024).

For orientation: IC50 means the concentration that inhibits the measured activity by half.

In the experiment the target is T1, human LPA1 (Homo sapiens, UniProt Q92633).
T1 construct: expressed in transfected cells; host or cells: CHO-K1
The experiment is described as follows: In vitro LPA1 calcium flux antagonist assay - Bioduro protocol. In kind it is cell-based. The settings on record: CHO-K1 cells overexpressing human LPA1 and G15a, LPA challenge at EC80. In outline: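 Calcium mobilization read on FLIPR after EC80 LPA was added to compound-pretreated (30 min) CHO-K1 cells co-expressing human LPA1 and G15a. Cells were starved 4 h and dye-loaded with Fluo-8 AM/2.5 mM probenecid in HBSS-Hepes; inhibition normalized between DMSO and LPA-control RFU.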
A general note: Calcium flux is commonly read through the fluorescence of an indicator in the cells.

Where [1] appears, read: calcium mobilization on FLIPR Tetra, read-out: IC50.
Where [2] appears, read: Table B3, read-out: Activity (IC50 class).

Like-named read-outs stand apart in the source and are kept apart here.

T1 sequence (Q92633 whole entry): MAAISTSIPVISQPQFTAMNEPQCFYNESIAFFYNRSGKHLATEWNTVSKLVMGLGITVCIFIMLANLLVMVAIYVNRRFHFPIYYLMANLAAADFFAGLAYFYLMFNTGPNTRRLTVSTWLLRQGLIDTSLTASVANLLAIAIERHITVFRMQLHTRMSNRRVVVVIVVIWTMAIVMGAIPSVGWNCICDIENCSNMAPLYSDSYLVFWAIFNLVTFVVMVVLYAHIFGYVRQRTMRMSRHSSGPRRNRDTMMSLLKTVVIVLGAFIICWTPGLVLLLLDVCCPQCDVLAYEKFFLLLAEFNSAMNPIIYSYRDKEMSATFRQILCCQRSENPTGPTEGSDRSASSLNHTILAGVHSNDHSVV

As for `COc1cc(-c2ccc(NC3(C(=O)O)CCOCC3)cc2COC2CCCC2)cc(OC)c1C(C)=O` [Compound 124], the IC50 under setting [1] amounted to 0.0916 µM and the IC50 under setting [2] was less than 0.1 µM.
With `CCCOCc1cc(NC2(C(=O)O)CCOCC2)ccc1-c1cc(OC)c(C)c(OC)c1F` [Compound 334], the IC50 is 0.0452 µM under setting [1] and less than 0.1 µM under setting [2].
Regarding `COc1cc(OC)cc(-c2ccc(NC3(C(=O)O)CCOCC3)cc2COC2COc3ccccc32)c1` (single isomer, unassigned) [Compound 158], the IC50 is, setting by setting: under setting [1], 0.0463 µM; under setting [2], less than 0.1 µM.
Consider `COc1cc(-c2ccc(NC3(C(=O)O)C[C@@H]3C)cc2COC2Cc3ccccc3C2)cc(OC)c1C` (stereo partly drawn) [Compound 119, (2S)-1-((2-(((2,3-dihydro-1H-inden-2-yl)oxy)methyl)-3′,5′-dimethoxy-4′-methyl-[1,1′-biphenyl]-4-yl)amino)-2-methylcyclopropane-1-carboxylic acid], for which the IC50 was 0.0356 µM under setting [1] and less than 0.1 µM under setting [2].
`CC(C)COc1cccc(-c2ccc(NC3(C(=O)O)CCOCC3)cc2COC2CCCC2)c1F` [Compound 277]: the IC50 is 0.0727 µM under setting [1] and less than 0.1 µM under setting [2].
For `CCOc1cccc(-c2ccc(NC3(C(=O)O)CCC3)cc2COC2CC2)c1C(F)F` [Compound 333], the IC50 runs as follows: under setting [1], 0.0103 µM; under setting [2], less than 0.1 µM.
With `CCCCOCc1cc(NC2(C(=O)O)CCOCC2)ccc1-c1cc(OC)c(C)c(OCC)c1F` [Compound 400], the IC50 runs as follows: under setting [1], 0.00537 µM; under setting [2], less than 0.1 µM.
The corresponding values for `COc1cc(-c2ccc(NC3(C(=O)O)CCOCC3)cc2COC2CCC3(CC3)C2)cc(OC)c1C` (stereo not shown) [Compound 219] are 0.058 µM and less than 0.1 µM.
The matching figures for `COc1cc(OC2CC2)c(F)c(-c2ccc(OC3(C(=O)O)CCOCC3)cc2COC2CC2)c1` [Compound 344]: 0.106 µM and 0.1 to 1 µM.
As to `COc1cc(-c2ccc(NC3(C(=O)O)CCOCC3)cc2COC2CCCC2)cc(OC)c1C(F)F` [Compound 274], the IC50 is 0.028 µM under setting [1] and less than 0.1 µM under setting [2].
Turning to `COc1cc(-c2ccc(NC3(C(=O)O)CCOCC3)cc2COC2CC2)cc(OC2CC2)c1C` [Compound 341], the IC50 was 0.214 µM under setting [1] and 0.1 to 1 µM under setting [2].
Turning to `O=C(O)C1(Nc2ccc(-c3cccc(OC4CC4)c3C(F)F)c(COC3CCCC3)c2)CC1` [Compound 301], the half-maximal inhibitory concentration (IC50) is, setting by setting: under setting [1], 0.0125 µM; under setting [2], less than 0.1 µM.
Regarding `O=C(O)C1(Nc2ccc(-c3cccc(OC4CCC4)c3F)c(COC3CC3)c2)CCOCC1` [Compound 291], the IC50 under setting [1] was 0.173 µM and the IC50 under setting [2] was less than 0.1 µM.
As to `CCOC1CC(Nc2ccc(-c3cc(OC)c(C)c(OC)c3)c(COC3Cc4ccccc4C3)c2)(C(=O)O)C1` (stereo not shown) [Compound 137], the half-inhibitory concentration (IC50) was 0.0452 µM under setting [1] and less than 0.1 µM under setting [2].
The corresponding values for `COc1cc(-c2ccc(NC3(C(=O)O)CCOCC3)cc2COC2CCCC2)c(Cl)c(OC)c1C` [Compound 166] are 0.00931 µM and less than 0.1 µM.
The corresponding values for `CCCCOCc1cc(NC2(C(=O)O)CCOCC2)ccc1-c1cncc(OCC)c1C(F)F` [Compound 404] are 0.013 µM and less than 0.1 µM.
The matching figures for `COc1cc(-c2ccc(NC3(C(=O)O)CCNCC3)cc2COC2Cc3ccccc3C2)cc(OC)c1C` [Compound 136]: 0.885 µM and more than 1 µM.
`COc1cc(OC)cc(-c2c(C)cc(NC3(C(=O)O)CCOCC3)cc2COC2CCCC2)c1` [Compound 156]: the IC50 is 0.162 µM under setting [1] and 0.1 to 1 µM under setting [2].
As to `O=C(O)C1(Nc2ccc(-c3cccc(OC4CC4)c3)c(COC3CC3)c2)CCOCC1` [Compound 304], the IC50 was 0.00564 µM under setting [1] and more than 1 µM under setting [2].
Consider `COc1cc(-c2ccc(NCC(C)C(=O)O)cc2COC2Cc3ccccc3C2)cc(OC)c1C` (stereo not shown) [Compound 116], for which the IC50 runs as follows: under setting [1], 2.16 µM; under setting [2], more than 1 µM.
